System: perennial ryegrass 96-3047
Assay: glyphosate applied at termination of the Maryland turf trial, plot survival
Format: in vivo, Lolium perenne L.
Details: perennial ryegrass 96-3047 plot, Maryland trial 1999, glyphosate at 2-quarts per acre; only plot not killed
Source text: In 1999, during the termination of the Maryland trial, 96-3047 was the only plot in the trial that was not killed when glyphosate at the rate of 2-quarts per acre was applied. Survival in the plot was estimated at 30% and plugs were pulled, coded as 99-0089, and 200 plants of 99-0089 were planted in an isolation block in the 1999 Post Falls, Id. nursery.

O=C(O)CNCP(=O)(O)O [glyphosate, N-(phosphonomethyl) glycine]
Survival in the plot: ~30%

Reference: patent US20110191876A1, “GLYPHOSATE TOLERANT PERENNIAL RYEGRASS NAMED 'JACKLIN 501'” (J.R. SIMPLOT COMPANY, priority 2009, published 2011)
